Blank lines part the entries; values can stand above or below the compound they belong to. Residues, ends and D or L forms follow the SMILES beside them. *: point of attachment. X1 = O=c1nc(N*)ccn1[C@@H]1O[C@H](CO)[C@@H](O)C1(F)F
How the values were obtained:
[1] = Drug uptake in mouse B16F10 cells using 5,6-carboxyfluorescein-labeled compound at 20 ug/ml after 4 hrs by DAPI staining-based fluorescence microscopic method; assay type: ADME, cell-based; settings: b16-f10, 4 h
[2] = test system: B16-F10; assay: Ratio of drug uptake in mouse B16F10 cells at 20 ug/ml after 4 hrs by flow cytometric method to drug uptake in mouse B16F10 cells at 20 ug/ml after 30 mins by flow cytometric method; assay type: ADME, cell-based
[3] = Hemolytic activity in rat erythrocytes up to 50 uM after 1 hr relative to control; assay type: ADME, cell-based, Erythrocyte; settings: read-out: Activity
[4] = Hemolytic activity in rat erythrocytes at 100 uM after 1 hr relative to control; assay type: ADME, cell-based, Erythrocyte; settings: read-out: Activity
[5] = Stability in saline assessed as parent compond remaining using 99mTc(CO)3-labeled compound after 24 hrs by TLC method; assay type: physicochemical; settings: read-out: Stability
[6] = Metabolic stability in rat serum assessed as parent compound remaining using 99mTc(CO)3-labeled compound after 24 hrs by TLC method; assay type: ADME, cell-free; settings: read-out: Stability
[7] = Drug degradation in histidine solution using 99mTc(CO)3-labeled compound after 24 hrs by TLC method; assay type: physicochemical; settings: read-out: Drug degradation
[8] = n-Octanol-phosphate buffer partition co-efficient, log P of 99mTc(CO)3-labeled compound at 2 to 3 KBq after 1 min by gamma scintillation counting method; assay type: physicochemical
[9] = Drug uptake in mouse B16F10 cells using 99mTc(CO)3-labeled compound at 15 to 20 MBq/ml after 30 mins by gamma scintillation counting method relative to total added activity; assay type: ADME, cell-based; settings: b16-f10, 0.5 h
[10] = Drug uptake in mouse B16F10 cells using 99mTc(CO)3-labeled compound at 15 to 20 MBq/ml after 240 mins by gamma scintillation counting method relative to total added activity; assay type: ADME, cell-based; settings: b16-f10, 4 h
[11] = Drug uptake in mouse B16F10 cells using 99mTc(CO)3-labeled compound at 15 to 20 MBq/ml after 30 mins by gamma scintillation counting method; assay type: ADME, cell-based; settings: b16-f10, 0.5 h
[12] = Drug uptake in heart of Balb/c mouse allografted with mouse B16F10 cells using 99mTc(CO)3-labeled compound at 10 to 12 MBq/kg, iv measured at 2 hrs; assay type: ADME, organism-based; settings: in vivo
[13] = Drug uptake in blood of Balb/c mouse allografted with mouse B16F10 cells using 99mTc(CO)3-labeled compound at 10 to 12 MBq/kg, iv measured at 2 hrs; assay type: ADME, organism-based; settings: in vivo
[14] = Drug uptake in liver of Balb/c mouse allografted with mouse B16F10 cells using 99mTc(CO)3-labeled compound at 10 to 12 MBq/kg, iv measured at 2 hrs; assay type: ADME, organism-based; settings: in vivo
[15] = Drug uptake in lung of Balb/c mouse allografted with mouse B16F10 cells using 99mTc(CO)3-labeled compound at 10 to 12 MBq/kg, iv measured at 2 hrs; assay type: ADME, organism-based; settings: in vivo
[16] = Drug uptake in spleen of Balb/c mouse allografted with mouse B16F10 cells using 99mTc(CO)3-labeled compound at 10 to 12 MBq/kg, iv measured at 2 hrs; assay type: ADME, organism-based; settings: in vivo
[17] = Drug uptake in muscle of Balb/c mouse allografted with mouse B16F10 cells using 99mTc(CO)3-labeled compound at 10 to 12 MBq/kg, iv measured at 2 hrs; assay type: ADME, organism-based, Muscle tissue; settings: in vivo
[18] = Drug uptake in tumor muscle of Balb/c mouse allografted with mouse B16F10 cells using 99mTc(CO)3-labeled compound at 10 to 12 MBq/kg, iv measured at 2 hrs; assay type: ADME, organism-based; settings: in vivo
[19] = Drug uptake in kidney of Balb/c mouse allografted with mouse B16F10 cells using 99mTc(CO)3-labeled compound at 10 to 12 MBq/kg, iv measured at 2 hrs; assay type: ADME, organism-based; settings: in vivo
[20] = Drug uptake in intestine of Balb/c mouse allografted with mouse B16F10 cells using 99mTc(CO)3-labeled compound at 10 to 12 MBq/kg, iv measured at 2 hrs; assay type: ADME, organism-based; settings: in vivo
[21] = Drug uptake in stomach of Balb/c mouse allografted with mouse B16F10 cells using 99mTc(CO)3-labeled compound at 10 to 12 MBq/kg, iv measured at 2 hrs; assay type: ADME, organism-based; settings: in vivo
[22] = Drug uptake in urine of Balb/c mouse allografted with mouse B16F10 cells using 99mTc(CO)3-labeled compound at 10 to 12 MBq/kg, iv measured at 2 hrs; assay type: ADME, organism-based; settings: in vivo
[23] = Ratio of drug level in tumor to blood of Balb/c mouse allografted with mouse B16F10 cells using 99mTc(CO)3-labeled compound at 10 to 12 MBq/kg, iv measured at 2 hrs; assay type: ADME, organism-based, Tumor/tissue
[24] = Ratio of drug level in tumor to muscle of Balb/c mouse allografted with mouse B16F10 cells using 99mTc(CO)3-labeled compound at 10 to 12 MBq/kg, iv measured at 2 hrs; assay type: ADME, organism-based, Tumor/tissue; settings: in vivo
[25] = Drug uptake in heart of Balb/c mouse allografted with mouse B16F10 cells using 99mTc(CO)3-labeled compound at 10 to 12 MBq/kg, iv measured at 4 hrs; assay type: ADME, organism-based; settings: in vivo
[26] = Drug uptake in blood of Balb/c mouse allografted with mouse B16F10 cells using 99mTc(CO)3-labeled compound at 10 to 12 MBq/kg, iv measured at 4 hrs; assay type: ADME, organism-based; settings: in vivo
[27] = Drug uptake in liver of Balb/c mouse allografted with mouse B16F10 cells using 99mTc(CO)3-labeled compound at 10 to 12 MBq/kg, iv measured at 4 hrs; assay type: ADME, organism-based; settings: in vivo
[28] = Drug uptake in lung of Balb/c mouse allografted with mouse B16F10 cells using 99mTc(CO)3-labeled compound at 10 to 12 MBq/kg, iv measured at 4 hrs; assay type: ADME, organism-based; settings: in vivo
[29] = Drug uptake in spleen of Balb/c mouse allografted with mouse B16F10 cells using 99mTc(CO)3-labeled compound at 10 to 12 MBq/kg, iv measured at 4 hrs; assay type: ADME, organism-based; settings: in vivo
[30] = Drug uptake in muscle of Balb/c mouse allografted with mouse B16F10 cells using 99mTc(CO)3-labeled compound at 10 to 12 MBq/kg, iv measured at 4 hrs; assay type: ADME, organism-based, Muscle tissue; settings: in vivo
[31] = Drug uptake in tumor muscle of Balb/c mouse allografted with mouse B16F10 cells using 99mTc(CO)3-labeled compound at 10 to 12 MBq/kg, iv measured at 4 hrs; assay type: ADME, organism-based; settings: in vivo
[32] = Drug uptake in kidney of Balb/c mouse allografted with mouse B16F10 cells using 99mTc(CO)3-labeled compound at 10 to 12 MBq/kg, iv measured at 4 hrs; assay type: ADME, organism-based; settings: in vivo
[33] = Drug uptake in intestine of Balb/c mouse allografted with mouse B16F10 cells using 99mTc(CO)3-labeled compound at 10 to 12 MBq/kg, iv measured at 4 hrs; assay type: ADME, organism-based; settings: in vivo
[34] = Drug uptake in stomach of Balb/c mouse allografted with mouse B16F10 cells using 99mTc(CO)3-labeled compound at 10 to 12 MBq/kg, iv measured at 4 hrs; assay type: ADME, organism-based; settings: in vivo
[35] = Drug uptake in urine of Balb/c mouse allografted with mouse B16F10 cells using 99mTc(CO)3-labeled compound at 10 to 12 MBq/kg, iv measured at 4 hrs; assay type: ADME, organism-based; settings: in vivo
[36] = Ratio of drug level in tumor to blood of Balb/c mouse allografted with mouse B16F10 cells using 99mTc(CO)3-labeled compound at 10 to 12 MBq/kg, iv measured at 4 hrs; assay type: ADME, organism-based, Tumor/tissue
[37] = Ratio of drug level in tumor to muscle of Balb/c mouse allografted with mouse B16F10 cells using 99mTc(CO)3-labeled compound at 10 to 12 MBq/kg, iv measured at 4 hrs; assay type: ADME, organism-based, Tumor/tissue; settings: in vivo
[38] = Drug uptake in tumor of Balb/c mouse allografted with mouse B16F10 cells using 99mTc(CO)3-labeled compound at 4 to 8 MBq, iv measured at 4 hrs by scintigraphic imaging method; assay type: ADME, organism-based, Neoplasm; settings: in vivo
[39] = test system: B16-F10; assay: Cytotoxicity against mouse B16F10 cells assessed as decrease in cell viability after 72 hrs by MTT assay; assay type: functional, cell-based; settings: B16-F10, 72 h
[40] = Drug uptake in kidney of Balb/c mouse allografted with mouse B16F10 cells using 99mTc(CO)3-labeled compound at 4 to 8 MBq, iv measured at 4 hrs by scintigraphic imaging method; assay type: ADME, organism-based; settings: in vivo
[41] = Drug uptake in liver of Balb/c mouse allografted with mouse B16F10 cells using 99mTc(CO)3-labeled compound at 4 to 8 MBq, iv measured at 4 hrs by scintigraphic imaging method; assay type: ADME, organism-based; settings: in vivo
[42] = Drug uptake in gastrointestinal tract of Balb/c mouse allografted with mouse B16F10 cells using 99mTc(CO)3-labeled compound at 4 to 8 MBq, iv measured at 4 hrs by scintigraphic imaging method; assay type: ADME, organism-based; settings: in vivo
[43] = Drug uptake in urinary bladder of Balb/c mouse allografted with mouse B16F10 cells using 99mTc(CO)3-labeled compound at 4 to 8 MBq, iv measured at 4 hrs by scintigraphic imaging method; assay type: ADME, organism-based; settings: in vivo
[44] = Drug uptake in mouse B16F10 cells using 99mTc(CO)3-labeled compound at 15 to 20 MBq/ml after 240 mins by gamma scintillation counting method; assay type: ADME, cell-based; settings: b16-f10, 4 h

Drug uptake [1]: Active
Ratio [2]: 1.8
remaining at 24 h [5]: ≥ 92%
remaining at 24 h [6]: ≥ 92%
degraded at 24 h [7]: 5%
logP at 1 min [8]: -1.77
Drug uptake [9]: 2.9%
Drug uptake [10]: 4.99%
Drug uptake [11]: 30.45%
Drug uptake [12]: 0.07 % ID/g
Drug uptake [13]: 1.13 %ID/ml
Drug uptake [14]: 16.89 % ID/g
Drug uptake [15]: 0.32 % ID/g
Drug uptake [16]: 0.44 % ID/g
Drug uptake [17]: 0.17 % ID/g
Drug uptake [18]: 0.82 % ID/g
Drug uptake [19]: 4.44 % ID/g
Drug uptake [20]: 7.9 % ID/g
Drug uptake [21]: 0.36 % ID/g
Drug uptake [22]: 53.11 %ID/ml
Kp at 2 h [23]: 0.72
Ratio [24]: 4.66
Drug uptake [25]: 0.05 % ID/g
Drug uptake [26]: 0.88 %ID/ml
Drug uptake [27]: 14.39 % ID/g
Drug uptake [28]: 0.2 % ID/g
Drug uptake [29]: 0.26 % ID/g
Drug uptake [30]: 0.17 % ID/g
Drug uptake [31]: 0.83 % ID/g
Drug uptake [32]: 3.24 % ID/g
Drug uptake [33]: 9.06 % ID/g
Drug uptake [34]: 0.26 % ID/g
Drug uptake [35]: 56.11 %ID/ml
Kp at 4 h [36]: 0.94
Ratio [37]: 4.89
Drug uptake [38]: Not Active
Drug uptake [40]: Active
Drug uptake [41]: Active
Drug uptake [42]: Active
Drug uptake [43]: Active
Drug uptake [44]: 65%
Compound: N=C(N)NCCC[C@H](NC(=O)[C@@H](N)Cc1cnc[nH]1)C(=O)NCC(=O)N[C@@H](CC(=O)Nc1ccn([C@@H]2O[C@H](CO)[C@@H](O)C2(F)F)c(=O)n1)C(N)=O (H-HRGD(X1)-NH2)
hemolysis at 1 h [3]: 5 to 6%
hemolysis at 1 h, 100 µM [4]: 7 to 9%
IC50 [39]: 210 nM

remaining at 24 h [5]: ≥ 92%
remaining at 24 h [6]: ≥ 92%
degraded at 24 h [7]: 5%
logP at 1 min [8]: -0.978
Drug uptake [9]: 4.76%
Drug uptake [10]: 9.59%
Drug uptake [11]: 41.41%
Drug uptake [12]: 0.08 % ID/g
Drug uptake [13]: 1.88 %ID/ml
Drug uptake [14]: 18.15 % ID/g
Drug uptake [15]: 0.33 % ID/g
Drug uptake [16]: 0.63 % ID/g
Drug uptake [17]: 0.18 % ID/g
Drug uptake [18]: 1.83 % ID/g
Drug uptake [19]: 17.15 % ID/g
Drug uptake [20]: 7.61 % ID/g
Drug uptake [21]: 0.23 % ID/g
Drug uptake [22]: 42.15 %ID/ml
Kp at 2 h [23]: 0.97
Ratio [24]: 10.11
Drug uptake [25]: 0.06 % ID/g
Drug uptake [26]: 1.65 %ID/ml
Drug uptake [27]: 14.64 % ID/g
Drug uptake [28]: 0.24 % ID/g
Drug uptake [29]: 0.45 % ID/g
Drug uptake [30]: 0.16 % ID/g
Drug uptake [31]: 3.01 % ID/g
Drug uptake [32]: 15.76 % ID/g
Drug uptake [33]: 8.32 % ID/g
Drug uptake [34]: 0.19 % ID/g
Drug uptake [35]: 49.26 %ID/ml
Kp at 4 h [36]: 1.82
Ratio [37]: 18.81
Drug uptake [38]: Active
Drug uptake [40]: Active
Drug uptake [41]: Active
Drug uptake [42]: Active
Drug uptake [43]: Active
Drug uptake [44]: 83%
Compound: H-HYKHGK-NH2
hemolysis at 1 h [3]: 5 to 6%
hemolysis at 1 h, 100 µM [4]: 7 to 9%
